The values below come from PubChem BioAssay (NCI).

Among the test systems are U251 CNS; SK-OV-3 ovarian; SK-MEL-5 melanoma; IGROV1 ovarian; UACC-257 melanoma; SK-MEL-2 melanoma; LOX IMVI melanoma; UO-31 renal; COLO 205 colon; MALME-3M melanoma.
What all share (assay): NCI anticancer screen, dose series, 48 h

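Five compound concentrations were applied to cells in 96-well plates for 48 hours; endpoints were derived by simple linear interpolation of the resulting dose-response curve. Here, GI50 denotes the concentration required for 50% inhibition of growth. Definition used: TGI = concentration required for complete inhibition of growth.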

In the case of `COc1ccc2c(CN3CCCC[C@H]3O)cc3cc4c(cc3c2c1)OCO4`, the GI50 with U251 CNS was 0.422 µM; in the assay on SK-OV-3 ovarian, 0.275 µM; with SK-MEL-5 melanoma, 0.345 µM; in the assay on IGROV1 ovarian it was 0.368 µM; in the assay on UACC-257 melanoma it was 0.237 µM; in the assay with SK-MEL-2 melanoma it was 0.291 µM. For the same molecule, the GI50 with LOX IMVI melanoma was 0.228 µM; in the assay on UO-31 renal, 0.31 µM; in the assay on COLO 205 colon, 0.185 µM; with MALME-3M melanoma, 0.218 µM. Also, the TGI was determined as 10.8 µM in the assay with U251 CNS; 0.961 µM in the assay with SK-OV-3 ovarian; 1.39 µM in the assay on SK-MEL-5 melanoma; 9.3 µM with IGROV1 ovarian; 0.737 µM with UACC-257 melanoma; 0.889 µM with SK-MEL-2 melanoma. Moreover, the TGI in the assay with LOX IMVI melanoma was determined as 0.849 µM; with UO-31 renal it was 5.67 µM; in the assay on COLO 205 colon, 1.36 µM; in the assay with MALME-3M melanoma, 0.61 µM.

Regarding `CCOC(=O)NN1C(=O)C(=P(c2ccccc2)(c2ccccc2)c2ccccc2)C(C(=O)OC)=C1C`, the TGI with U251 CNS, in the assay with SK-OV-3 ovarian, with SK-MEL-5 melanoma, with IGROV1 ovarian, with UACC-257 melanoma and in the assay on SK-MEL-2 melanoma was over 100 µM in each case. For the same molecule, the TGI in the assay with LOX IMVI melanoma, in the assay with UO-31 renal, in the assay with COLO 205 colon and with MALME-3M melanoma was over 100 µM each time.

For the molecule `Cc1nc(Nc2ccc(Cl)cc2)sc1C(=O)Nc1cccc2c(=O)[nH][nH]c(=O)c12`, the TGI with U251 CNS is over 100 µM; in the assay with SK-OV-3 ovarian, over 100 µM; with SK-MEL-5 melanoma it was 45.2 µM; with IGROV1 ovarian, 83.5 µM; in the assay with UACC-257 melanoma, over 100 µM; in the assay on SK-MEL-2 melanoma it was over 100 µM. Also, the TGI is 33 µM in the assay with LOX IMVI melanoma, over 100 µM in the assay with UO-31 renal, 34 µM with COLO 205 colon and 80.3 µM in the assay on MALME-3M melanoma.

As to `COc1ccccc1/C=C(\NC(=O)c1ccccc1)c1nc2ccccc2[nH]1`, the TGI in the assay on U251 CNS was over 100 µM; in the assay on SK-OV-3 ovarian, over 100 µM; in the assay on SK-MEL-5 melanoma it was 48 µM; in the assay on IGROV1 ovarian, over 100 µM; in the assay on UACC-257 melanoma, over 100 µM; with SK-MEL-2 melanoma it was over 100 µM. Moreover, the TGI with LOX IMVI melanoma is over 100 µM; with UO-31 renal, over 100 µM; in the assay on COLO 205 colon it was 80.3 µM; in the assay with MALME-3M melanoma it was over 100 µM.

With `COc1ccc(C2=NNC(c3sc(Cl)nc3Cl)C2)cc1` (stereo not given), the GI50 in the assay with U251 CNS was 9.08 µM; in the assay on SK-OV-3 ovarian it was 13.2 µM; in the assay on SK-MEL-5 melanoma it was 3.51 µM; in the assay with IGROV1 ovarian, 5.21 µM; in the assay with UACC-257 melanoma, 16 µM; in the assay with SK-MEL-2 melanoma it was 5.47 µM. The GI50 with LOX IMVI melanoma is 3.25 µM; with UO-31 renal, 6.62 µM; in the assay on COLO 205 colon it was 2.17 µM; with MALME-3M melanoma, 11.2 µM. The TGI was 22.1 µM in the assay on U251 CNS; 51.4 µM in the assay with SK-OV-3 ovarian; 14.3 µM in the assay on SK-MEL-5 melanoma; 22.2 µM in the assay on IGROV1 ovarian; 36.2 µM in the assay on UACC-257 melanoma; 21 µM in the assay with SK-MEL-2 melanoma. In addition, the TGI amounted to 13.7 µM in the assay on LOX IMVI melanoma, 20.3 µM in the assay with UO-31 renal, 4.4 µM in the assay on COLO 205 colon and 29 µM with MALME-3M melanoma.

Regarding `COc1ccc(C(=O)c2ccccc2)c(O)c1`, the GI50 is 66.3 µM in the assay with U251 CNS; over 100 µM in the assay on SK-OV-3 ovarian; 37.9 µM in the assay on SK-MEL-5 melanoma; over 100 µM in the assay with IGROV1 ovarian; over 100 µM in the assay on UACC-257 melanoma; over 100 µM in the assay on SK-MEL-2 melanoma. In addition, the GI50 in the assay with LOX IMVI melanoma is 92 µM; in the assay with UO-31 renal, 17 µM; in the assay with COLO 205 colon it was over 100 µM; in the assay on MALME-3M melanoma, 61.4 µM. Also, the TGI in the assay on U251 CNS, in the assay with SK-OV-3 ovarian, with SK-MEL-5 melanoma, in the assay on IGROV1 ovarian, in the assay on UACC-257 melanoma and in the assay with SK-MEL-2 melanoma was over 100 µM throughout. For the same molecule, the TGI in the assay on LOX IMVI melanoma, in the assay on UO-31 renal, in the assay with COLO 205 colon and with MALME-3M melanoma was over 100 µM in each case.

As to `COc1ccc2c(c1)[n+](=O)c(/C=C/C(=O)c1cc(OC)c(OC)c(OC)c1)c(C)n2[O-]`, the GI50 in the assay on U251 CNS is 5.94 µM; in the assay on SK-OV-3 ovarian, 23.9 µM; with SK-MEL-5 melanoma, 12.6 µM; with IGROV1 ovarian it was 18.2 µM; in the assay on UACC-257 melanoma it was 9.61 µM; in the assay with SK-MEL-2 melanoma it was 11.5 µM. The GI50 with LOX IMVI melanoma is 3.95 µM; in the assay with UO-31 renal, 3.57 µM; in the assay with COLO 205 colon, 1.65 µM; in the assay with MALME-3M melanoma it was 17 µM. In addition, the TGI in the assay with U251 CNS was 47 µM; in the assay with SK-OV-3 ovarian it was 92.8 µM; in the assay on SK-MEL-5 melanoma it was 34.3 µM; in the assay with IGROV1 ovarian it was over 100 µM; with UACC-257 melanoma, over 100 µM; in the assay on SK-MEL-2 melanoma, 28.3 µM. Moreover, the TGI was 28.6 µM in the assay with LOX IMVI melanoma, over 100 µM with UO-31 renal, 11.3 µM in the assay on COLO 205 colon and over 100 µM in the assay on MALME-3M melanoma.

As for `O=C(NCCCN1CCN(CCCNC(=O)Nc2cc(Cl)ccc2Cl)CC1)Nc1cc(Cl)ccc1Cl`, the TGI in the assay on U251 CNS is over 100 µM; in the assay with SK-OV-3 ovarian, over 100 µM; in the assay with SK-MEL-5 melanoma it was over 100 µM; in the assay with IGROV1 ovarian, over 100 µM; in the assay on UACC-257 melanoma, 34 µM; with SK-MEL-2 melanoma it was over 100 µM. For the same molecule, the TGI in the assay on LOX IMVI melanoma was over 100 µM; in the assay with UO-31 renal it was over 100 µM; with COLO 205 colon, over 100 µM; in the assay on MALME-3M melanoma, 54.1 µM.

`COC(=O)CCC(NC(=S)N/N=C(\C)c1cccs1)C(=O)OC` (stereo not given): the TGI with U251 CNS, with SK-OV-3 ovarian, in the assay with SK-MEL-5 melanoma, in the assay with IGROV1 ovarian, with UACC-257 melanoma and with SK-MEL-2 melanoma was over 100 µM in each case. Also, the TGI in the assay with LOX IMVI melanoma, in the assay on UO-31 renal, in the assay with COLO 205 colon and in the assay on MALME-3M melanoma was over 100 µM throughout.
